# How the values were obtained:
# [1] = tested on: reverse transcriptases (Superscript II, Superscript III, Quant-seq RT); experiment: Reverse transcription of synthetic thiol-nucleotide-containing RNA followed by high-throughput sequencing; type: biochemical; settings: after iodoacetamide-treatment
# Method: Primer extension assays were essentially performed as described previously by Nilsen et al. (Cold Spring Harb Protoc. 2013, 1182-1185). Briefly, template RNA oligonucleotides (5L-let-7-3L or 5L-let-7-s^4Up9-3L; Dharmacon; see Table for sequences) were deprotected according to the instructions of the manufacturer and purified by denaturing polyacrylamide gel-elution. 100 μM purified RNA oligonucleotides were treated with 10 mM iodoacetamide (+IAA) or EtOH (−IAA) in standard reaction conditions (50% DMSO, 50 mM sodiumphosphate buffer, pH 8) for 15 min at 50° C. The reaction was stopped by addition of 20 mM DTT, followed by ethanol precipitation. RT primer (see Table for sequence) was 5′ radiolabeled using γ-^32P-ATP (Perkin-Elmer) and T4-polynucleotide kinase (NEB), followed by denaturing polyacrylamide gel-purification. 640 nM γ-^32P-RT primer was annealed to 400 nM 5L-let-7-3L or 5L-let-7-s^4Up9-3L in 2× annealing buffer (500 mM KCl, 50 mM Tris pH 8.3) in a PCR machine (3 min 95° C., 30 sec 85° C. Ramp 0.5° C./s, 5 min 25° C. Ramp 0.1° C./s). Reverse transcription was performed using Superscript II (Invitrogen), Superscript III (Invitrogen), or Quant-seq RT (Lexogen) as recommended by the manufacturer. For dideoxynucleotide reactions, a final concentration of 500 μM ddNTP (as indicated) was added to RT reactions. Upon completion, RT reactions were resuspended in formamide loading buffer (Gel loading buffer II, Thermo Fisher Scientific) and subjected to 12.5% denaturing polyacrylamide gel electrophoresis. Gels were dried, exposed to storage phosphor screen (PerkinElmer), imaged on a Typhoon TRIO variable mode imager (Amersham Biosciences), and quantified using ImageQuant TL v7.0 (GE Healthcare). […]
# For sequencing analysis of synthetic RNA samples (FIG. 5) barcoded libraries were demultiplexed using Picard Tools BamIndexDecoder v1.13 allowing 0 mismatches in the barcode. […] Remaining aligned reads were converted to pileup format. […] Output table was analyzed and plotted in Excel v15.22 (Microsoft) and Prism v7.0a (GraphPad). […]
# Drosophila S2 cells [2] = experiment: Small RNA sequencing of Drosophila S2 cells after s^4U metabolic labeling; type: cell-based, Drosophila melanogaster
# Method: (§1) Upon generating libraries from size-selected total RNA of Drosophila S2 cells after s^4U metabolic labeling for 24 hours, we observed a strong accumulation of T>C conversions when compared to libraries prepared from unlabeled cells, as exemplified for the miR-184 locus, which gives rise to an abundantly expressed microRNA, miR-184-3p, and its less abundant miR*, miR-184-5p (FIG. 12A). In order to confirm this observation at the genomic scale, we aligned reads to annotated microRNA loci in the Drosophila genome and inspected the frequency of any given mutation normalized to overall T-content per miRNA (FIG. 12B). In the absence of s^4U metabolic labeling, we observed a median mutation rate of less than 0.1% for any given mutation, a rate that is consistent with Illumina-reported sequencing error rates. (Note, that iodoacetamide treatment of unlabeled total RNA had no detectable impact on small RNA abundance and mutation rate, as determined by high-throughput sequencing. See FIG. 19). After 24 h of s^4U metabolic labeling, we observed a statistically significant (p<10^−4, Mann-Whitney test), 74-fold increase in T>C mutation rates, while all other mutations remained below expected sequencing error rates (FIG. 12B).
# Drosophila S2 cells [3] = experiment: HPLC analysis of s^4U-incorporation into total RNA of Drosophila S2 cells; type: cell-based, Drosophila melanogaster; settings: 500 μM s^4U, 24 h
# Method: Analysis of s^4U- or s^6G-incorporation into total RNA following metabolic labeling was performed as previously described by Spitzer et al. (Meth Enzymol. 539, 113-161 (2014)).
# as §1, with “After 24 h of s^4U metabolic labeling, we observed a statistically significant (p<10^−4, Mann-Whitney test), 74-fold increase in T>C mutation rates, while all other mutations remained below expected sequencing error rates (FIG. 12B).” left out
smiles,measurement,setting,value
"O=c1[nH]c(=S)ccn1[C@@H]1O[C@H](CO)[C@@H](O)[C@H]1O [s^4U, 4-thiouridine]",increase in T to C conversion,[1],8.5 fold
same,mutation rate (T to C),[1]; all tested RTs,more than 0.94
same,median s^4U-incorporation in miRNAs,"Drosophila S2 cells [2]; 500 μM s^4U, 24 h labeling",2.22%
same,increase in T>C mutation rates,Drosophila S2 cells [2]; 24 h labeling vs unlabeled,74 fold
same,labeling efficiency in total RNA,Drosophila S2 cells [3],2.3%

# Source: US11859248B2, “Nucleic acid modification and identification method” (IMBA—INSTITUT FÜR MOLEKULARE BIOTECHNOLOGIE GMBH, priority 2017, dated 2024)
